Measurements as given in US9834542B2, “LXR modulators” (BRISTOL-MYERS SQUIBB COMPANY, priority 2013, dated 2017).

Biological target: T1, LXRβ (Homo sapiens, UniProt P55055)
T1 construct: Co-transfection expression plasmids, comprising full-length LXRα (pCMX-h LXRα[…] or LXRβ (pCMX-hLXRβ)); expressed in transfected cells; host or cells: CV-1 African Green Monkey Kidney Cells
T1 sequence (P55055 1-460): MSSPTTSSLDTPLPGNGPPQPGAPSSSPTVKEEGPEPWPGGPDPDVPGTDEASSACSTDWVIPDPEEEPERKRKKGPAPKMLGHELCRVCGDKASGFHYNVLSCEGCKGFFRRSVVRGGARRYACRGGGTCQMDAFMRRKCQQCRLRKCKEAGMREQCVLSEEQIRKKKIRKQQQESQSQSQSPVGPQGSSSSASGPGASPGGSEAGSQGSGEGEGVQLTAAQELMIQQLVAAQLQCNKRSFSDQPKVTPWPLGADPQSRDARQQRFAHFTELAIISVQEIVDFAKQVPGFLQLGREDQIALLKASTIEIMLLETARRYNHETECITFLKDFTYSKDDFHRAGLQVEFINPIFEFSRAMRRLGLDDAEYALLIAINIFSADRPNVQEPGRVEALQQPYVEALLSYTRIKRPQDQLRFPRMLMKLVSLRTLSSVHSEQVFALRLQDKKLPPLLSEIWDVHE
T1 sequence (P19793 1-462 partner): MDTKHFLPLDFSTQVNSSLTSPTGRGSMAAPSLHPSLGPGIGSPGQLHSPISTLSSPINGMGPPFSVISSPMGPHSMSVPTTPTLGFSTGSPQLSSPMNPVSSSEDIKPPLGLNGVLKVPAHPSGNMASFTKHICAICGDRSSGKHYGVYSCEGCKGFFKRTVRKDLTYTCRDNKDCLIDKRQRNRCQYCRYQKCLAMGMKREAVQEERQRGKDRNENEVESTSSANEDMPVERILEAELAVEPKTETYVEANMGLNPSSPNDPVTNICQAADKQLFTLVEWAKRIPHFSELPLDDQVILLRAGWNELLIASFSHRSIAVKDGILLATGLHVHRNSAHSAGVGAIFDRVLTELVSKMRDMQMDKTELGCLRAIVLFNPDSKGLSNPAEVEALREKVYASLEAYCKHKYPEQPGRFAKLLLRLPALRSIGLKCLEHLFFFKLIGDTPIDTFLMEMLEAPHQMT
Assay: Co-transfection assay (LXRE luciferase reporter), LXRβ
Assay type: cell-based
Conditions: for EC50: CV-1 cells transfected with pCMX-hLXRβ and LXREx1-Tk-Luciferase, 20 hours incubation; for Emax: LXRβ co-transfection, relative to high control 1-(2,4-difluorobenzyl)-2-oxo-6-(4-phenoxyphenyl)-4-(trifluoromethyl)-1,2-dihydropyridine-3-carbonitrile, read-out: % Efficacy
In short: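 Luciferase signal from an LXREx1-Tk reporter was measured after transfected CV-1 cells (full-length hLXRβ, endogenous RXR) were treated with compounds for 20 h at 37 °C, ≤0.5% DMSO. EC50 came from four-parameter fits of 11-point ½-log curves; % efficacy versus a reference agonist maximum.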

EC50	Emax	Structure (SMILES)
16 nM	75%	Cc1nc(C(F)(F)F)cn1-c1ccc(-c2cc(F)c(CO)c(S(C)(=O)=O)c2)cc1-c1nc(C(C)C)oc1-c1ccc(OC(F)(F)F)cc1 [Example 560, (3-fluoro-3′-(2-isopropyl-5-(4-(trifluoromethoxy)phenyl)oxazol-4-yl)-4′-(2-methyl-4-(trifluoromethyl)-1H-imidazol-1-yl)-5-(methylsulfonyl)-[1,1′-biphenyl]-4-yl)methanol]
13 nM	71%	Cc1nc(C(F)(F)F)cn1-c1ccc(-c2cc(F)c(CO)c(S(C)(=O)=O)c2)cc1-c1nc(CC(C)C)oc1-c1ccc(OC(F)(F)F)cc1 [Example 561, (3-fluoro-3′-(2-isobutyl-5-(4-(trifluoromethoxy)phenyl)oxazol-4-yl)-4′-(2-methyl-4-(trifluoromethyl)-1H-imidazol-1-yl)-5-(methylsulfonyl)-[1,1′-biphenyl]-4-yl)methanol]
34 nM	77%	Cc1nc(C(F)(F)F)cn1-c1ccc(-c2cccc(S(C)(=O)=O)c2)cc1-c1nc(CC(C)C)oc1-c1ccc(OC(F)(F)F)cc1 [Example 562, 2-isobutyl-4-(4-(2-methyl-4-(trifluoromethyl)-1H-imidazol-1-yl)-3′-(methylsulfonyl)-[1,1′-biphenyl]-3-yl)-5-(4-(trifluoromethoxy)phenyl)oxazole]
13 nM	70%	Cc1nc(C(F)(F)F)cn1-c1ccc(-c2ccc(CO)c(S(C)(=O)=O)c2)cc1-c1nc(CC(C)C)oc1-c1ccc(OC(F)(F)F)cc1 [Example 563, (3′-(2-isobutyl-5-(4-(trifluoromethoxy)phenyl)oxazol-4-yl)-4′-(2-methyl-4-(trifluoromethyl)-1H-imidazol-1-yl)-3-(methylsulfonyl)-[1,1′-biphenyl]-4-yl)methanol]
164 nM	57%	COCCc1nc(-c2cc(-c3cccc(S(C)(=O)=O)c3)ccc2-n2cc(C(F)(F)F)nc2C)c(-c2ccc(OC(F)(F)F)cc2)o1 [Example 564, 2-(2-methoxyethyl)-4-(4-(2-methyl-4-(trifluoromethyl)-1H-imidazol-1-yl)-3′-(methylsulfonyl)-[1,1′-biphenyl]-3-yl)-5-(4-(trifluoromethoxy)phenyl)oxazole]
354 nM	30%	Cc1nc(C(F)(F)F)cn1-c1ccc(-c2cccc(S(C)(=O)=O)c2)cc1-c1nc(C(C)CO)oc1-c1ccc(OC(F)(F)F)cc1 (centres unmarked) [Example 565, 2-(4-(4-(2-methyl-4-(trifluoromethyl)-1H-imidazol-1-yl)-3′-(methylsulfonyl)-[1,1′-biphenyl]-3-yl)-5-(4-(trifluoromethoxy)phenyl)oxazol-2-yl)propan-1-ol]
227 nM	94%	Cc1nc(-c2cc(-c3cccc(S(C)(=O)=O)c3)ccc2-n2cc(C(F)(F)F)nc2C)c(-c2ccc(Cl)nc2Cl)o1 [Example 566, 5-(2,6-dichloropyridin-3-yl)-2-methyl-4-(4-(2-methyl-4-(trifluoromethyl)-1H-imidazol-1-yl)-3′-(methylsulfonyl)-[1,1′-biphenyl]-3-yl)oxazole]
111 nM	93%	Cc1nc(-c2cc(-c3cc(F)c(CO)c(S(C)(=O)=O)c3)ccc2-n2cc(C(F)(F)F)nc2C)c(-c2ccc(Cl)nc2Cl)o1 [Example 567, (3′-(5-(2,6-dichloropyridin-3-yl)-2-methyloxazol-4-yl)-3-fluoro-4′-(2-methyl-4-(trifluoromethyl)-1H-imidazol-1-yl)-5-(methylsulfonyl)-[1,1′-biphenyl]-4-yl)methanol]
552 nM	68%	Cc1nc(-c2cc(-c3cc(F)c(CO)c(S(C)(=O)=O)c3)ccc2-n2cc(C(F)(F)F)nc2C)c(-c2ccc(C(F)(F)F)nc2)o1 [Example 568, (3-fluoro-4′-(2-methyl-4-(trifluoromethyl)-1H-imidazol-1-yl)-3′-(2-methyl-5-(6-(trifluoromethyl)pyridin-3-yl)oxazol-4-yl)-5-(methylsulfonyl)-[1,1′-biphenyl]-4-yl)methanol]
214 nM	90%	COc1ccc(-c2oc(C)nc2-c2cc(-c3cccc(S(C)(=O)=O)c3)ccc2-n2cc(C(F)(F)F)nc2C)cn1 [Example 569, 5-(6-methoxypyridin-3-yl)-2-methyl-4-(4-(2-methyl-4-(trifluoromethyl)-1H-imidazol-1-yl)-3′-(methylsulfonyl)-[1,1′-biphenyl]-3-yl)oxazole]
199 nM	93%	COc1ccc(-c2oc(C)nc2-c2cc(-c3cc(F)c(CO)c(S(C)(=O)=O)c3)ccc2-n2cc(C(F)(F)F)nc2C)cn1 [Example 570, (3-fluoro-3′-(5-(6-methoxypyridin-3-yl)-2-methyloxazol-4-yl)-4′-(2-methyl-4-(trifluoromethyl)-1H-imidazol-1-yl)-5-(methylsulfonyl)-[1,1′-biphenyl]-4-yl)methanol]
157 nM	49%	Cc1nc(-c2cc(-c3cccc(S(C)(=O)=O)c3)ccc2-n2cc(C(F)(F)F)nc2C)c(-c2ccc(SC(F)(F)F)cc2)o1 [Example 571, 2-methyl-4-(4-(2-methyl-4-(trifluoromethyl)-1H-imidazol-1-yl)-3′-(methylsulfonyl)-[1,1′-biphenyl]-3-yl)-5-(4-((trifluoromethyl)thio)phenyl)oxazole]
95 nM	46%	Cc1nc(-c2cc(-c3cccc(S(C)(=O)=O)c3)ccc2-n2cc(C(F)(F)F)nc2C)c(-c2ccc(OC(F)(F)C(F)(F)F)cc2)o1 [Example 572, 2-methyl-4-(4-(2-methyl-4-(trifluoromethyl)-1H-imidazol-1-yl)-3′-(methylsulfonyl)-[1,1′-biphenyl]-3-yl)-5-(4-(perfluoroethoxy)phenyl)oxazole]
127 nM	50%	Cc1nc(-c2cc(-c3cccc(S(C)(=O)=O)c3)ccc2-n2cc(C(F)(F)F)nc2C)c(-c2cccc(OC(F)(F)F)c2)o1 [Example 573, 2-methyl-4-(4-(2-methyl-4-(trifluoromethyl)-1H-imidazol-1-yl)-3′-(methylsulfonyl)-[1,1′-biphenyl]-3-yl)-5-(3-(trifluoromethoxy)phenyl)oxazole]
233 nM	63%	Cc1nc(-c2cc(-c3cccc(S(C)(=O)=O)c3)ccc2-n2cc(C(F)(F)F)nc2C)c(-c2cccc(OC(F)(F)C(F)(F)F)c2)o1 [Example 574, 2-methyl-4-(4-(2-methyl-4-(trifluoromethyl)-1H-imidazol-1-yl)-3′-(methylsulfonyl)-[1,1′-biphenyl]-3-yl)-5-(3-(perfluoroethoxy)phenyl)oxazole]
20 nM	101%	CCc1nc(-c2ccc(OC(F)(F)F)cc2)c(-c2cc(-c3cc(F)c(CO)c(S(C)(=O)=O)c3)ccc2-n2cc(C(F)(F)F)nc2C)o1 [Example 600, {3′-(2-ethyl-4-{4-[(trifluoromethyl)oxy]phenyl}-1,3-oxazol-5-yl)-3-fluoro-5-(methylsulfonyl)-4′-[2-methyl-4-(trifluoromethyl)-1H-imidazol-1-yl]biphenyl-4-yl}methanol]
30 nM	74%	Cc1nc(C(F)(F)F)cn1-c1ccc(-c2cc(F)c(CO)c(S(C)(=O)=O)c2)cc1-c1oc(C(C)C)nc1-c1ccc(OC(F)(F)F)cc1 [Example 601, {3-fluoro-3′-[2-(1-methylethyl)-4-{4-[(trifluoromethyl)oxy]phenyl}-1,3-oxazol-5-yl]-5-(methylsulfonyl)-4′-[2-methyl-4-(trifluoromethyl)-1H-imidazol-1-yl]biphenyl-4-yl}methanol]
25 nM	87%	CCCc1nc(-c2ccc(OC(F)(F)F)cc2)c(-c2cc(-c3cccc(S(C)(=O)=O)c3)ccc2-n2cc(C(F)(F)F)nc2C)o1 [Example 602, 5-{3′-(methylsulfonyl)-4-[2-methyl-4-(trifluoromethyl)-1H-imidazol-1-yl]biphenyl-3-yl}-2-propyl-4-{4-[(trifluoromethyl)oxy]phenyl}-1,3-oxazole]
40 nM	91%	Cc1nc(-c2ccc(OC(F)(F)F)cc2)c(-c2cc(-c3cc(F)c(CO)c(S(C)(=O)=O)c3)ccc2-n2cc(C(F)(F)F)nc2C)o1 [Example 603, (3-fluoro-3′-(2-methyl-4-(4-(trifluoromethoxy)phenyl)oxazol-5-yl)-4′-(2-methyl-4-(trifluoromethyl)-1H-imidazol-1-yl)-5-(methylsulfonyl)-[1,1′-biphenyl]-4-yl)methanol]
